In US20220177947A1, “Compounds to Identify Beta-Lactamases, and Methods of Use Thereof” (priority 2019, published 2022):
Like-named read-outs stand apart in the source and are kept apart here.

Columns and labels:
[1] = test system: Enterobacteriaceae isolates; format: cell-based; conditions: for resistance in the isolates (in words): all Enterobacteriaceae isolates, excluding intrinsic resistance
Protocol: Urine culture, organism identification, AST, and ESBL confirmatory testing. Standard microbiological procedures were performed by the clinical laboratory as part of routine care for all urine samples used in this study, per the clinical laboratory's standard operating procedures. First, 1 μL or 10 μL of urine sample was plated on standard agar plates (blood agar and eosin methylene blue agar biplate), then visually inspected the next day for significant growth indicative of a UTI (≥10^4 CFU/mL cutoff applied). The MiscroScan WalkAway system (Beckman Coulter) was utilized for bacterial identification and AST of GNB and select GPB causing UTI. […] AST interpretations were based on CLSI's 2017 guidelines.

[2] = biological target: T1, TEM-1 (Escherichia coli, UniProt P62593); conditions: cited from earlier work
[3] = biological target: B. cereus I (Bacillus cereus, UniProt P00809); conditions: cited from earlier work
[4] = biological target: T2, SHV-1 (Klebsiella pneumoniae, UniProt P0AD64); conditions: cited from earlier work
[5] = biological target: T1, TEM-1; conditions: cited from earlier work; remark: listed apart in the source
[6] = biological target: T2, SHV-1; conditions: cited from earlier work; remark: listed apart in the source
[7] = biological target: S. aureus PC1 (Staphylococcus aureus, UniProt P00807); conditions: cited from earlier work
[8] = test system: K. pneumoniae clinical isolates; assay: DETECT with β-lactamase inhibitors (clavulanic acid); format: cell-based; conditions: original score/inhibitor score, 30 min
Protocol: (§1) A solution of sodium clavulanate was prepared to 1 mg/400 μL in “buffer 1”, and 4 μL of this solution was added to both the sample and control well for each isolate tested, two min prior to addition of β-lactamase probe or acetonitrile to the sample and control well, respectively. […]

[9] = test system: E. coli clinical isolates; assay: as above; format: cell-based; conditions: original score/inhibitor score, 30 min
Protocol: as §1

T1 sequence (P62593 24-286 limits assumed): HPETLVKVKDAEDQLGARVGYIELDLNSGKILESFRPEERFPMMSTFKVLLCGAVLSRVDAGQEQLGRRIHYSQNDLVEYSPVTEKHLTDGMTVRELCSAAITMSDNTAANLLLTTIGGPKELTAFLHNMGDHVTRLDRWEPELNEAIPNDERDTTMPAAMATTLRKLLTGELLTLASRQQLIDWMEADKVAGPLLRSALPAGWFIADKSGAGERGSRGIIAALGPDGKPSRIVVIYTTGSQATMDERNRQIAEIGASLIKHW
T2 sequence (P0AD64 22-286): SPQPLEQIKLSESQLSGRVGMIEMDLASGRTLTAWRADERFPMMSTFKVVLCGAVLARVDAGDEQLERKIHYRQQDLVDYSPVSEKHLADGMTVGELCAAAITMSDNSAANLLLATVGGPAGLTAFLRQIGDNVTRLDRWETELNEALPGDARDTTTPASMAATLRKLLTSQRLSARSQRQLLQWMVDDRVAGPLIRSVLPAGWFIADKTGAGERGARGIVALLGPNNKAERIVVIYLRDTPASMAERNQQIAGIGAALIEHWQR
Sequence of S. aureus PC1 (P00807 25-281): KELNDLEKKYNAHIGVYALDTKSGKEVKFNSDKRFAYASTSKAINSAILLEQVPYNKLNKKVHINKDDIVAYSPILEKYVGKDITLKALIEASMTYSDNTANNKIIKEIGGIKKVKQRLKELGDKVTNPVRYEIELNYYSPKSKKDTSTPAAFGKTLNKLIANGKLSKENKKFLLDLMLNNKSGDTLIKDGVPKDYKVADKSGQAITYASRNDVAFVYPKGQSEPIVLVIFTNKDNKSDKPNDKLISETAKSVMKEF
Sequence of B. cereus I (P00809 28-306): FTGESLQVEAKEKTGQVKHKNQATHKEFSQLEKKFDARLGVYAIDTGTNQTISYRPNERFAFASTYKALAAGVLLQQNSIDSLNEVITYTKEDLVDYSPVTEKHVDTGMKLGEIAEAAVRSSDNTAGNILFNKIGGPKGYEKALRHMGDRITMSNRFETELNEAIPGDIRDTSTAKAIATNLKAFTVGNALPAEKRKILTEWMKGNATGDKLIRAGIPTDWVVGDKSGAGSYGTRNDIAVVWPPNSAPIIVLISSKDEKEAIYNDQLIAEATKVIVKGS

Molecule: NCC[C@H](O)C(=O)N[C@@H]1C[C@H](N)[C@@H](O[C@H]2O[C@H](CN)[C@@H](O)[C@H](O)[C@H]2O)[C@H](O)[C@H]1O[C@H]1O[C@H](CO)[C@@H](O)[C@H](N)[C@H]1O [amikacin]
- resistance identified, number of isolates ([1]; CTX-M-producing bacteria): one

Molecule: CO[C@@]1(NC(=O)Cc2cccs2)C(=O)N2C(C(=O)O)=C(COC(N)=O)CS[C@@H]21 [cefoxitin]
- resistance in the isolates (in words) [1]: rare

Molecule: O=C(O)[C@H]1/C(=C/CO)O[C@@H]2CC(=O)N21 [clavulanic acid]
- turnover number (tn), inhibitor molecules to inactivate one β-lactamase enzyme [2]: 160
- turnover number (tn), inhibitor molecules to inactivate one β-lactamase enzyme [3]: more than 16,000
- IC50 fold lower than that for sulbactam [4]: 580 fold
- IC50 fold lower than that for sulbactam [5]: 60 fold
- turnover number (tn), inhibitor molecules to inactivate one β-lactamase enzyme [6]: 60
- turnover number (tn), inhibitor molecules to inactivate one β-lactamase enzyme [7]: one
- Times-change in DETECT score, with clavulanic acid ([8]; isolate B7: KPC-2, CTX-M-15, TEM-1B, SHV-11): 2.3
- Times-change in DETECT score, with clavulanic acid ([8]; isolate B14: KPC-2, CTX-M-9, TEM-1A, SHV-11): 2.4
- Times-change in DETECT score, with clavulanic acid ([8]; isolate B23: KPC-2, CTX-M-15, TEM-1B, SHV-11, OXA-1): 4.4
- Times-change in DETECT score, with clavulanic acid ([8]; isolate FB13: CTX-M-15, CTX-M-8, TEM-1A, SHV-25/121, OXA-1): 15.3
- Times-change in DETECT score, with clavulanic acid ([8]; isolate FB90: CTX-M-15, CTX-M-8, TEM-1A, SHV-25/121, OXA-1): 14.2
- Times-change in DETECT score, with clavulanic acid ([8]; isolate HAF66: CTX-M-8, TEM-1, SHV-85): 10.5
- Times-change in DETECT score, with clavulanic acid ([8]; isolate HAF102: CTX-M-8, TEM-1, SHV-76): 8.2
- Times-change in DETECT score, with clavulanic acid ([8]; isolate HCD309: CTX-M-8, TEM-1, SHV-1): 5.9
- Times-change in DETECT score, with clavulanic acid ([8]; isolate HCD405: CTX-M-15, SHV-25/121, OXA-1): 17.6
- Times-change in DETECT score, with clavulanic acid ([8]; isolate HON257: CTX-M-2, TEM-15, SHV-25/121): 23.0
- Times-change in DETECT score, with clavulanic acid ([8]; isolate SF681: CTX-M-15, TEM-1B, SHV-11, OXA-1): 3.8
- Times-change in DETECT score, with clavulanic acid ([9]; isolate CDC-081: CMY-2, TEM-1B): 1.6
- Times-change in DETECT score, with clavulanic acid ([9]; isolate CDC-085: CMY-2): 1.3
- Times-change in DETECT score, with clavulanic acid ([9]; isolate CDC-086: CTX-M-14, TEM-1B): 10.7
- Times-change in DETECT score, with clavulanic acid ([9]; isolate CDC-089: CMY-2): 1.6
- Times-change in DETECT score, with clavulanic acid ([9]; isolate D14: CTX-M-15): 5.4
- Times-change in DETECT score, with clavulanic acid ([9]; isolate D129: CTX-M-2, TEM, SHV): 14.2
- Times-change in DETECT score, with clavulanic acid ([9]; isolate D270: CTX-M-17): 12.9
- Times-change in DETECT score, with clavulanic acid ([9]; isolate D304: CTX-M-55/57): 9.9
- Times-change in DETECT score, with clavulanic acid ([9]; isolate D333: CTX-M-14/17/18): 10.3
- Times-change in DETECT score, with clavulanic acid ([9]; isolate D362: CTX-M-15): 4.9
- Times-change in DETECT score, with clavulanic acid ([9]; isolate D497: CTX-M-15): 3.2
- Times-change in DETECT score, with clavulanic acid ([9]; isolate D500: CTX-M-27, CMY-2/130): 1.7
- Times-change in DETECT score, with clavulanic acid ([9]; isolate SF141: CMY-2): 1.5
- Times-change in DETECT score, with clavulanic acid ([9]; isolate SF148: CTX-M-14): 16.8
- Times-change in DETECT score, with clavulanic acid ([9]; isolate SF207: CMY-2): 1.2
- Times-change in DETECT score, with clavulanic acid ([9]; isolate SF325: CTX-M-14/17/18, OXA): 5.7
- Times-change in DETECT score, with clavulanic acid ([9]; isolate SF410: CTX-M-15): 4.8
- Times-change in DETECT score, with clavulanic acid ([9]; isolate SF468: CTX-M-14, TEM-1): 15.5
- Times-change in DETECT score, with clavulanic acid ([9]; isolate SF473: CTX-M-14/17/18): 13.0
- Times-change in DETECT score, with clavulanic acid ([9]; isolate SF487: CTX-M-14): 9.9
- Times-change in DETECT score, with clavulanic acid ([9]; isolate SF674: CTX-M-15): 5.8

Molecule: C[C@H]1COc2c(N3CCN(C)CC3)c(F)cc3c(=O)c(C(=O)O)cn1c23 [levofloxacin]
- resistance identified, number of isolates ([1]; CTX-M-producing bacteria): 8
- resistance identified, percent of isolates ([1]; CTX-M-producing bacteria): 73%
- resistance identified, number of isolates ([1]; bacteria lacking CTX-Ms): 13
- resistance identified, percent of isolates ([1]; bacteria lacking CTX-Ms): 14%

Molecule: O=C1CN(/N=C/c2ccc([N+](=O)[O-])o2)C(=O)N1 [nitrofurantoin]
- resistance identified, number of isolates ([1]; CTX-M-producing bacteria): 1
- resistance identified, percent of isolates ([1]; CTX-M-producing bacteria): 10%
- resistance identified, number of isolates ([1]; bacteria lacking CTX-Ms): 2
- resistance identified, percent of isolates ([1]; bacteria lacking CTX-Ms): 2%

Molecule: CC1(C)[C@H](C(=O)O)N2C(=O)C[C@H]2S1(=O)=O [sulbactam]
- turnover number (tn), inhibitor molecules to inactivate one β-lactamase enzyme [2]: 10,000
- turnover number (tn), inhibitor molecules to inactivate one β-lactamase enzyme [6]: 13,000

Molecule: CN(C)c1cc(NC(=O)CNC(C)(C)C)c(O)c2c1C[C@H]1C[C@H]3[C@H](N(C)C)C(O)=C(C(N)=O)C(=O)[C@@]3(O)C(O)=C1C2=O [tigecycline]
- resistance in the isolates (in words) [1]: no tigecycline-resistant isolates were identified

Molecule: NC[C@H]1O[C@H](O[C@H]2[C@H](O)[C@@H](O[C@H]3O[C@H](CO)[C@@H](O)[C@H](N)[C@H]3O)[C@H](N)C[C@@H]2N)[C@H](N)C[C@@H]1O [tobramycin]
- resistance identified, number of isolates ([1]; CTX-M-producing bacteria): 5
- resistance identified, percent of isolates ([1]; CTX-M-producing bacteria): 45%
- resistance identified, number of isolates ([1]; bacteria lacking CTX-Ms): 2
- resistance identified, percent of isolates ([1]; bacteria lacking CTX-Ms): 2%

Molecule: gentamicin
- resistance identified, number of isolates ([1]; CTX-M-producing bacteria): 5
- resistance identified, percent of isolates ([1]; CTX-M-producing bacteria): 45%
- resistance identified, number of isolates ([1]; bacteria lacking CTX-Ms): 7
- resistance identified, percent of isolates ([1]; bacteria lacking CTX-Ms): 7%

Molecule: piperacillin/tazobactam
- resistance in the isolates (in words) [1]: not detected

Molecule: trimethoprim/sulfamethoxazole
- resistance identified, number of isolates ([1]; CTX-M-producing bacteria): 8
- resistance identified, percent of isolates ([1]; CTX-M-producing bacteria): 73%
- resistance identified, number of isolates ([1]; bacteria lacking CTX-Ms): 21
- resistance identified, percent of isolates ([1]; bacteria lacking CTX-Ms): 22%
